For 134 compounds, logP results are on record in the OPERA property sets (Mansouri et al. 2018).

Peptide text beside a SMILES is read from it. * marks the point of attachment. NHtBu = CC(C)(C)N*

One may read the logP as a log measure of how a compound divides between an organic and an aqueous phase. The low end stands for a more hydrophilic compound, the high end for a more lipophilic compound. Turning to `Nc1cccc(OC(=O)c2ccc(N)cc2O)c1`, the logP turned out to be 2.08.

On to `Cn1c(N)nc2ccccc21`, for which the logP came to 0.95.

For `CC(=O)Nc1ncc([N+](=O)[O-])s1`, the logP came out at 1.3.

Take `C=C(C)[C@H]1Cc2c(ccc3c2O[C@@H]2COc4cc(OC)c(OC)cc4[C@@H]2C3=O)O1`: the logP amounted to 4.1.

Compound `C=C=C` came in with a logP of 1.45.

`Nc1ccc(C(=O)Oc2cccc(F)c2)c(O)c1`: the logP was 3.42.

With `COc1ccc(O)c2ncccc12`, the logP amounted to 2.06.

`Cc1ccc2cccnc2c1`: the log partition coefficient (logP) was found to be 2.47.

In turn, `C#CCCCC` gave a logP of 2.73.

In the case of `CN(C)C(=O)OCc1ccc(F)cc1`, the logP was 2.3.

The compound `NC(=O)C1CCCN1C(=O)C(Cc1cn(C(=O)OC2CCCCC2)cn1)NC(=O)C1CCC(=O)N1` (centres undefined) displayed a logP of 0.6.

With `N#Cc1cccc(C=O)c1`, the logP was 1.18.

With `Oc1ccc(Cn2cc[nH]c2=S)cc1`, the logP amounted to 1.02.

The compound `C=CCCC(C)=O` returned a log partition coefficient (logP) of 1.02.

Compound `CC(=O)c1ccsc1` yielded a logP of 1.24.

In the case of `O=C(O)c1ccc(F)cc1`, the log partition coefficient (logP) was found to be 2.07.

With `CCCCNCCCC`, the logP was 2.83.

Regarding `NC(=O)c1ncn2c(=O)n(CCCl)nnc12`, the log partition coefficient (logP) was -0.47.

On to `C#C`, for which the logP was determined as 0.37.

In turn, `O=C(O)CCCc1ccccc1` displayed a logP of 2.42.

For the compound `O=[N+]([O-])c1ccc(N=C=S)cc1`, the logP was determined as 3.62.

The compound `CN(C)CCCCc1cccnc1` came in with a logP of 1.49.

Turning to `CC(CO)NCc1ccccc1` (centres undefined), the logP turned out to be 1.28.

Take `CCCn1cnc2c(N)ncnc21`: the logP came out at 0.74.

As to `NCC(F)(F)F`, the logP stood at 0.24.

Compound `CCCCCCc1ccncc1` came in with a logP of 4.35.

`CN(C)C(N(C)C)=S(I)c1c(Cl)cccc1Cl` (centres undefined) gave a logP of 0.

The compound `O=[N+]([O-])c1cccnc1` displayed a logP of 0.6.

Consider `Cc1cccc(Cl)c1`, for which the logP was found to be 3.28.

Compound `COc1ccccc1O` yielded a log partition coefficient (logP) of 1.32.

`COc1cccc(C=C(C(N)=O)C(N)=O)c1` displayed a logP of 0.01.

In turn, `CNC(=O)Oc1cccc(Br)c1` registered a logP of 2.25.

Regarding `Cc1ccc(S(=O)(=O)N(C)N=O)cc1`, the logP amounted to 0.58.

Turning to `c1ccc(Nc2ccccc2)cc1`, the logP was determined as 3.5.

`CN(C)C(=O)Nc1cccc(F)c1` returned a logP of 1.37.

In turn, `Cc1[nH]cnc1CSCCNc1cccc(=O)[nH]1` yielded a logP of 0.79.

In turn, `CCOCCCl` came in with a logP of 0.98. This logP and that of the compound before are within 0.2 log units of each other.

Compound `COP(=S)(OC)Oc1ccc(S(=O)(=O)N(C)C)cc1` gave a logP of 2.23.

Regarding `CCN(C)C`, the logP turned out to be 0.7.

With `NCCc1c[nH]c2ccccc12`, the logP came to 1.55.

`CSc1ccc(C(=O)O)cc1` yielded a logP of 2.74.

The compound `CC1N=C(c2ccccc2)c2cc(Cl)ccc2NC1=O` (centres undefined) displayed a log partition coefficient (logP) of 3.33.

`O=C(O)c1cc([N+](=O)[O-])ccc1O` registered a logP of 2.34.

Take `CCOC(=O)C(=Cc1cccc(OCC)c1)C(C)=O`: the logP turned out to be 2.71.

`O=C(CN1CCCCC1)Nc1ccc(I)cc1` displayed a logP of 3.9.

Take `O=C(O)c1ccc(O)c(O)c1O`: the logP was 1.05.

For `N#Cc1sc2c(=O)c3ccccc3c(=O)c=2sc1C#N`, the logP was 2.84.

Compound `CCc1cc(-c2ccccc2)nnc1NCCN1CCOCC1` yielded a logP of 2.53.

`BrCCc1ccccc1` had a logP of 3.09.

Take `Cc1cc(N)nc(C)n1`: the logP was found to be 0.39.

The compound `O=C(O)Cc1ccc(Br)cc1` registered a logP of 2.31.

Consider `CCOC(=O)c1ccc(N)cc1`, for which the logP came out at 1.86.

In the case of `Cc1cccc(NC(N)=O)c1`, the logP came out at 1.29.

On to `COc1ccc2nc(N)[nH]c2c1`, for which the logP was determined as 0.57.

Compound `CC(=O)NC(C)C(=O)NC(Cc1c[nH]c2ccccc12)C(=O)NC(C)C(=O)NC(C)(C)C` (stereo not drawn) (Ac-Ala-Trp-Ala-NHtBu; configuration not given here) had a log partition coefficient (logP) of 1.26.

For the compound `CCCNCCC`, the logP worked out at 1.67.

As to `c1cncc([C@@H]2CCCN2)c1`, the logP was 0.17.

Compound `CCc1cccc(OC(=O)NC)c1` gave a lipophilicity (logP) of 2.2.

Consider `O=[N+]([O-])C=Cc1ccc(Cl)cc1Cl`, for which the logP came out at 3.26.

On to `CCN(CC)CC`, for which the logP worked out at 1.45.

For the compound `CC[C@H](C)[C@H](NC(=O)[C@@H](NC(=O)[C@H](C)NC(C)=O)C(C)C)C(N)=O`, the log partition coefficient (logP) was -0.2.

`O=C(O)CSc1c[nH]c2ccccc12`: the lipophilicity (logP) came to 1.78.

Take `CC(=O)N(C)c1ccccc1`: the logP came out at 1.12.

As to `CCCN(CC)C(CC)C(=O)Nc1c(C)cccc1C` (centres undefined), the logP came out at 3.69.

In turn, `O=C1CN=C(c2ccc(F)cc2)c2cc(Cl)ccc2N1` gave a logP of 2.9.

`FN(F)C(c1ccccc1)(c1ccccc1)c1ccccc1` registered a logP of 3.73.

The compound `CCOP(=S)(Oc1ccc(C#N)cc1)c1ccccc1` (centres undefined) displayed a logP of 4.29.

`CN(C)C(N(C)C)=S(I)c1ccc(Cl)cc1[N+](=O)[O-]` (centres undefined) displayed a logP of -0.09.

In the case of `CC(=O)c1ccc(C(=O)OCCN(C)C)cc1`, the log partition coefficient (logP) was found to be 1.57.

Regarding `C=CCc1ccccc1`, the lipophilicity (logP) came to 3.23.

`CCC1(CCC(C)C)C(=O)NC(=O)NC1=O` registered a logP of 2.07.

The compound `Nc1nc2nc[nH]c2c(=S)[nH]1` registered a logP of -0.07.

Take `CC(=O)NCc1ccccc1`: the logP came to 0.95.

Consider `O=C1C=CC(=O)C(Cl)=C1`, for which the logP is 0.84.

`COc1ccccc1C=CC(=O)OCCOc1ccc(C=NO)cc1OC`: the logP is 3.56.

Compound `CCCCCCCOC(=O)c1ccc(O)cc1` came in with a logP of 4.83.

Compound `CCc1cc([N+](=O)[O-])cc([N+](=O)[O-])c1O` came in with a logP of 2.67.

Compound `CNc1cnn(-c2cccc(C(F)(F)F)c2)c(=O)c1Cl` came in with a logP of 2.3.

In the case of `CC12CCC(=O)C=C1CCC1C3CCC(O)(C(=O)CO)C3(C)CC(O)C12F` (centres undefined), the logP turned out to be 1.67.

As for `COc1ccc(-c2cc3ccccn3c2)cc1`, the logP amounted to 4.2.

Regarding `CCN(CC)c1cc(C(=O)NN)ccn1`, the logP came out at 1.12.

`N#Cc1ccc(NC=O)cc1`: the logP is 1.08.

Turning to `Brc1ccc(-c2cc3ccccn3c2)cc1`, the logP stood at 5.43.

For the compound `C1COC1`, the logP is -0.14.

As to `N#CCc1cccs1`, the logP was found to be 1.26.

Compound `COc1nccnc1NS(=O)(=O)c1ccc(N)cc1` yielded a log partition coefficient (logP) of 0.7.

The compound `O=C(Nc1ccc(Cl)c(Cl)c1)C1CC1` showed a lipophilicity (logP) of 3.83.

Consider `CCCCCCCCCCNC(=O)c1[nH]nc(C)c1[N+](=O)[O-]`, for which the logP was 4.48.

In turn, `CN(C)c1cccnc1` yielded a logP of 1.41.

The compound `CNC(C)Cc1ccccc1` (centres undefined) returned a logP of 2.07.

Compound `c1ccc(Nc2cccc3ccccc23)cc1` registered a logP of 4.2.

As for `O=C1CN=C(c2ccccc2C(F)(F)F)c2cc([N+](=O)[O-])ccc2N1`, the logP was 2.51.

Turning to `CC(=O)Nc1ccccc1[N+](=O)[O-]`, the log partition coefficient (logP) was found to be 1.

`CN(C)N=Nc1ccccc1`: the logP turned out to be 2.59.

The compound `CC(=O)Oc1ccccc1C` yielded a logP of 1.93.

As to `CCOC(=O)C(=Cc1ccccc1[N+](=O)[O-])C(=O)OCC`, the logP came to 2.54.

As for `CC(=O)OCC(=O)[C@@]1(O)CC[C@H]2[C@@H]3CCC4=CC(=O)CC[C@]4(C)[C@H]3C(=O)C[C@@]21C`, the logP amounted to 2.1.

On to `CC(=O)N[C@@H](Cc1ccccc1)C(=O)NCC(N)=O` (Ac-Phe-Gly-NH2), for which the logP is -0.5.

With `C[C@@H](O)c1ccccc1`, the logP is 1.42.

In turn, `Brc1ccncc1` returned a logP of 1.54.

`CN(C)C(=O)OCc1ccc(Br)cc1` showed a log partition coefficient (logP) of 3.01.

`O=[N+]([O-])c1nccn1C1OC(CI)C(O)C1O` (centres undefined) came in with a logP of 0.32.

`CC(C)NCc1cccnc1` displayed a logP of 0.82.

The compound `COC1CC(OC2CCC3(C)C(CCC4C3CCC3(C)C(C5=CC(=O)OC5)C(OC(C)=O)CC43O)C2)OC(C)C1O` (centres undefined) yielded a logP of 2.53.

Take `CCN(CC)CCOC(=O)c1ccc(N)cc1Cl`: the logP turned out to be 2.86.

In the case of `COC(=O)c1cccc(S(I)=C(N(C)C)N(C)C)c1` (centres undefined), the lipophilicity (logP) was -0.75.

With `CN(C)c1nc(N)nc(N(C)C)n1`, the lipophilicity (logP) worked out at 1.2.

`CC[C@H](C)[C@H](NC(=O)[C@H](Cc1c[nH]c2ccccc12)NC(C)=O)C(=O)NCC(N)=O` (Ac-Trp-Ile-Gly-NH2): the logP came out at 0.62.

`CC(=O)Sc1ccccc1` yielded a logP of 2.23.

On to `Cc1ccc2c(c1)c([N+](=O)[O-])cc[n+]2[O-]`, for which the logP worked out at 1.43.

Take `Nc1ccc(Cc2ccc(N)cc2)cc1`: the logP was found to be 1.59.

In turn, `Cn1c(=O)n(C)c2ccccc21` registered a logP of 1.46. This logP and that of the compound before are within 0.2 log units of each other.

Compound `CCCCCCCCO` registered a lipophilicity (logP) of 3.

Regarding `CNCC(F)(F)F`, the logP was 0.55.

Compound `CCCCCCCCOc1ccccc1NC(=O)OCCN1CCCCC1` gave a logP of 6.36.

Regarding `O=C1C=CC(=NO)C=C1`, the logP was 1.08.

With `Nc1ccc(C(=O)O)c(F)c1`, the logP was determined as 1.29.

Take `CC1OC(=O)c2ccccc21` (centres undefined): the logP was 1.41.

Consider `CN1CCN(C2=Nc3cc(Cl)ccc3Nc3ccccc32)CC1`, for which the lipophilicity (logP) came to 3.23.

In the case of `COP(=O)(NC(C)=O)SC` (centres undefined), the lipophilicity (logP) was -0.85.

In the case of `COc1cc(S(=O)(=O)CCN(C)Cc2ccccc2)cc(OC)c1OC`, the logP turned out to be 2.18.

The compound `CCCCOc1cc(C(=O)NCCN(CC)CC)c2ccccc2n1` returned a logP of 4.4.

`OC(c1ccccc1)c1ccccn1` (centres undefined) yielded a logP of 1.52.

`ClC(Cl)=Nc1ccccc1` yielded a logP of 2.54.

`CCOC(=O)C(=Cc1cccc(OCC)c1)C(=O)OCC` showed a logP of 3.39.

In turn, `O=S1(=O)OCC2C(CO1)C1(Cl)C(Cl)=C(Cl)C2(Cl)C1(Cl)Cl` (centres undefined) showed a logP of 3.66.

Compound `O=C(O)Cc1ccccc1Nc1c(Cl)cccc1Br` displayed a logP of 4.64.

As for `CCOc1cccc(S(I)=C(N(C)C)N(C)C)c1` (centres undefined), the lipophilicity (logP) is -0.1.

`CCCc1ccccc1O` had a logP of 2.93.

On to `OCCOCCOCCN1CCC(=C(c2ccccc2)c2ccccc2)CC1`, for which the logP was determined as 3.78.

Consider `CCOC(=O)C(=O)Nc1ccccc1`, for which the logP worked out at 1.48.

`CN(C)C(N(C)C)=S(I)c1ccc(Cl)cc1` (centres undefined): the logP was -0.2.

The compound `NS(=O)(=O)c1ccc(I)cc1` had a log partition coefficient (logP) of 1.59.

In turn, `O=C(O)Cc1cccc(F)c1` displayed a lipophilicity (logP) of 1.65.
